{
  "source": "paper PMC3118409",
  "about": "(Cell, 2011)",
  "key": {"KMO [1]": {"target": "KMO (Rattus norvegicus, UniProt O88867)", "sequence (O88867 whole entry)": "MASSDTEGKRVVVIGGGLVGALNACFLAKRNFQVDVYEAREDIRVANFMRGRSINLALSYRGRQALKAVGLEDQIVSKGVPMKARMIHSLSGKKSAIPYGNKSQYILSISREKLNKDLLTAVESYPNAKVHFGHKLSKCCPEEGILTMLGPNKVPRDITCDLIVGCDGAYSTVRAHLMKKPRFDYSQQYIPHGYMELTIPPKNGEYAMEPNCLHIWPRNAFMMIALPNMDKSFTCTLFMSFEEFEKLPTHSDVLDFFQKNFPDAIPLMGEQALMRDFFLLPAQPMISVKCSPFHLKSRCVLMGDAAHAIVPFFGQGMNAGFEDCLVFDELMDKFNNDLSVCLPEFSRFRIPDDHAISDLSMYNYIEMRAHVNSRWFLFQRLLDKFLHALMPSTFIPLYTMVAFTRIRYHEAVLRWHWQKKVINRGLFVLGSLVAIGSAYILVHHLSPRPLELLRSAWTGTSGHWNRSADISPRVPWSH", "assay": "Inhibition of KMO", "assay_type": "biochemical", "details": "read-out: IC50 for KMO"}, "[2]": {"assay": "Metabolic stability of Ro 61-8048", "assay_type": "in vitro ADME", "details": "data not shown"}, "KMO [3]": {"system": "KMO", "assay": "In vivo microdialysis in striatum and serum sampling of rats after acute JM6", "details": "for Level in brain dialysate: JM6 100 mg/kg p.o., data not shown"}, "[4]": {"assay_type": "in vivo, mice", "details": "5 h"}, "[5]": {"assay": "Ro 61-8048 levels in plasma and tissues of chronically JM6-treated R6/2 mice", "assay_type": "in vivo"}, "APPtg mice [6]": {"system": "APPtg mice", "assay": "Neuropathology", "assay_type": "in vivo"}, "APPtg mice [7]": {"system": "APPtg mice", "assay_type": "in vivo", "details": "JM6 75 mg/kg/day p.o. for 120 days"}, "APPtg mice [8]": {"system": "APPtg mice", "assay": "Elevated plus maze in APPtg mice", "assay_type": "in vivo", "details": "JM6 75 mg/kg/day p.o. for ~120 days"}, "KMO [9]": {"system": "KMO", "assay": "In vivo microdialysis in prefrontal cortex of rats treated 7 days with JM6", "details": "JM6 for 7 days, 100 mg/kg/day p.o. (legend: 75 mg/kg/day)"}, "R6/2 mice [10]": {"system": "R6/2 mice", "assay": "Neuropathology", "assay_type": "in vivo"}, "R6/2 mice [11]": {"system": "R6/2 mice", "assay": "Survival, body weight and rotarod in R6/2 mice", "assay_type": "in vivo", "details": "chronic JM6 p.o., data not shown"}, "WT mice": {"system": "WT mice", "assay": "Chronic tolerability of JM6 in WT mice", "assay_type": "in vivo", "details": "JM6 25 mg/kg/day p.o. for 12 months, data not shown"}, "APPtg mice [12]": {"system": "APPtg mice", "assay": "Morris water maze in APPtg mice", "assay_type": "in vivo"}, "[13]": {"target": "kynurenine aminotransferase II (KAT II) (Rattus norvegicus, UniProt Q64602)", "sequence (Q64602 30-425)": "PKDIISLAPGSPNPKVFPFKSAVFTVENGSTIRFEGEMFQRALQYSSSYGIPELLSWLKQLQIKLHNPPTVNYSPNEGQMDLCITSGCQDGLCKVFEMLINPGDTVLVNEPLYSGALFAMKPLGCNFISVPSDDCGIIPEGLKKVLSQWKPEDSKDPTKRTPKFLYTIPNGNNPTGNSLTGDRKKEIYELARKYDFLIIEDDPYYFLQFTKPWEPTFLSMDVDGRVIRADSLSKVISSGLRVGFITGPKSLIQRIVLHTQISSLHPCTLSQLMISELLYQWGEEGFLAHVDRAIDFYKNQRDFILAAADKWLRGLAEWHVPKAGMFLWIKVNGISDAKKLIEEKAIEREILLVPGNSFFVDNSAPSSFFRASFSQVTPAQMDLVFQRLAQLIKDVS", "assay": "Reverse microdialysis of the KAT II inhibitor ESBA in JM6-treated rats", "assay_type": "in vivo", "details": "JM6 100 mg/kg p.o., ESBA 1 mM locally for 2 h by reverse microdialysis"}, "[14]": {"details": "WT mice, single JM6 300 mg/kg p.o., LC/MS"}, "[15]": {"details": "R6/2 mice chronically treated with JM6"}, "[16]": {"details": "JM6 75 mg/kg/day p.o., data not shown"}, "[17]": {"details": "JM6 7.5 or 25 mg/kg/day p.o., 12-week-old mice"}, "[18]": {"details": "WT mice, single JM6 300 mg/kg p.o., LC/MS, 300 mg/kg"}},
  "note": "Where “and” joins values, the source holds several entries; their conditions need not be identical. Equal entries are not always repeated. Where two headings read alike, the source gives them in different places.",
  "data": [
    {"compound": "COc1ccc(S(=O)(=O)Nc2nc(-c3cccc([N+](=O)[O-])c3)cs2)cc1OC", "note": "[Ro 61-8048, 3,4-dimethoxy-[-N-4-(nitrophenyl)thiazol-2yl]-benzenesulfonamide]", "values": [
      {"measurement": "IC50", "setting": "KMO [1]", "result": 37, "unit": "nM"},
      {"measurement": "Metabolic stability", "setting": "[2]", "result": "metabolically unstable"},
      {"measurement": "Level in brain dialysate", "setting": "KMO [3]", "result": "< 10", "unit": "nM"},
      {"measurement": "Muscle and liver levels after acute dosing", "setting": "[4]; WT mice, JM6 300 mg/kg p.o.", "result": "negligible"},
      {"measurement": "Ro 61-8048 released from JM6, brain level as % of plasma levels", "setting": "[4]; WT mice, single JM6 300 mg/kg p.o.", "result": 0.002, "unit": "%"},
      {"measurement": "Ro 61-8048 released from JM6, concentration in brain", "setting": "[4]; [14]", "result": "18 nM and 18 ± 5 nM"},
      {"measurement": "Ro 61-8048 released from JM6, concentration in plasma", "setting": "[4]; [14]", "result": "7 µM and 7.2 ± 0.8 µM"},
      {"measurement": "Ro 61-8048 released from JM6, concentration in liver", "setting": "[4]; mice, JM6 300 mg/kg p.o.", "result": 132, "unit": "nM"},
      {"measurement": "Ro 61-8048 released from JM6, concentration in muscle", "setting": "[4]; mice, JM6 300 mg/kg p.o.", "result": 149, "unit": "nM"},
      {"measurement": "Plasma concentration relative to IC50 for KMO", "setting": "[5]; [15]", "result": "more than eightfold"},
      {"measurement": "Ro 61-8048 released from JM6, concentration in plasma", "setting": "[5]; [15]", "result": "~ 280 nM"},
      {"measurement": "Ro 61-8048 released from JM6 in brain or muscle homogenates", "setting": "[5]; R6/2 mice chronically treated with JM6, data not shown", "result": "could not be detected"}
    ]},
    {"compound": "COc1ccc(S(=O)(=O)Nc2nc(-c3cccc([N+](=O)[O-])c3)c(CN3CCCCC3)s2)cc1OC", "note": "[JM6, 2-(3,4-dimethoxybenzenesulfonylamino)-4-(3-nitrophenyl)-5-(piperidin-1-yl)methylthiazole]", "values": [
      {"measurement": "Synaptic loss (synaptophysin) in cortex and hippocampus, APPtg mice", "setting": "APPtg mice [6]; JM6 75 mg/kg/day p.o. for 120 days, ~7 months of age", "result": "prevented"},
      {"measurement": "Aβ plaque load in hippocampus and cortex, APPtg mice", "setting": "APPtg mice [6]; [16]", "result": "did not have a significant effect"},
      {"measurement": "Brain 3-HK levels, APPtg mice, vs control mice", "setting": "APPtg mice [7]", "result": "not significantly different"},
      {"measurement": "Brain KMO activity, APPtg mice, vs control mice", "setting": "APPtg mice [7]", "result": "not significantly different"},
      {"measurement": "Brain KYNA levels, APPtg mice", "setting": "APPtg mice [7]", "result": "increased"},
      {"measurement": "Brain QUIN levels, APPtg mice, vs control mice", "setting": "APPtg mice [7]", "result": "not significantly different"},
      {"measurement": "Plasma KYNA levels, APPtg mice", "setting": "APPtg mice [7]", "result": "increased"},
      {"measurement": "Plasma QUIN levels, APPtg mice, vs control mice", "setting": "APPtg mice [7]", "result": "not significantly different"},
      {"measurement": "Increase in distance traveled in the open arm of the EPM, APPtg mice", "setting": "APPtg mice [8]", "result": "significantly attenuated"},
      {"measurement": "Time spent in the open arm of the elevated plus maze, APPtg mice", "setting": "APPtg mice [8]", "result": "not significantly different from WT littermate controls"},
      {"measurement": "Total distance traveled in the EPM (open and closed arm), APPtg mice", "setting": "APPtg mice [8]", "result": "not changed"},
      {"measurement": "Extracellular glutamate levels in the brain (prefrontal cortex)", "setting": "KMO [9]", "result": "significant reduction"},
      {"measurement": "Level in brain dialysate", "setting": "KMO [3]", "result": "< 10", "unit": "nM"},
      {"measurement": "Serum KYNA level, % of baseline", "setting": "KMO [3]; single JM6 100 mg/kg p.o., by 5 h", "result": 344, "unit": "%"},
      {"measurement": "Extracellular KYNA level in brain (striatum), % of baseline", "setting": "KMO [3]; single JM6 100 mg/kg p.o., by 5 h, microdialysis", "result": 180, "unit": "%"},
      {"measurement": "Inclusion body size or abundance in frontoparietal cortex, R6/2 mice", "setting": "R6/2 mice [10]; JM6 25 mg/kg/day p.o. from 4 weeks of age, EM48 immunostaining", "result": "did not influence"},
      {"measurement": "Iba1-positive cells (microglia) vs vehicle-treated controls, R6/2 mice", "setting": "R6/2 mice [10]; JM6 7.5 or 25 mg/kg/day p.o. from 4 weeks of age", "result": "significantly fewer"},
      {"measurement": "Fos immunoreactivity in striatum and cortex, R6/2 mice", "setting": "R6/2 mice [10]; [17]", "result": "prevented the loss"},
      {"measurement": "Synaptophysin in striatum and cortex, R6/2 mice", "setting": "R6/2 mice [10]; [17]", "result": "prevented the loss"},
      {"measurement": "Body weight of R6/2 mice", "setting": "R6/2 mice [11]", "result": "did not influence"},
      {"measurement": "Performance on accelerating rotarod, R6/2 mice", "setting": "R6/2 mice [11]; early stages of disease", "result": "modestly improved"},
      {"measurement": "Adverse effects on open field behavior, motor performance, or body weight", "setting": "WT mice", "result": "no adverse effects"},
      {"measurement": "Muscle and liver levels after acute dosing", "setting": "[4]; WT mice, JM6 300 mg/kg p.o.", "result": "negligible"},
      {"measurement": "JM6 concentration in brain", "setting": "[4]; [18]", "result": "119 ± 46", "unit": "nM"},
      {"measurement": "JM6 concentration in plasma", "setting": "[4]; [18]", "result": "39.1 ± 13.2", "unit": "µM"},
      {"measurement": "Spatial memory in Morris water maze, WT mice", "setting": "APPtg mice [12]; JM6 75 mg/kg/day p.o.", "result": "no effect"},
      {"measurement": "Spatial memory in Morris water maze, APPtg mice", "setting": "APPtg mice [12]; JM6 75 mg/kg/day p.o. from 2 months of age, tested at ~6 months", "result": "significant improvement"},
      {"measurement": "Spatial learning in WT or APPtg mice", "setting": "APPtg mice [12]; [16]", "result": "did not influence"}
    ]},
    {"compound": "CCS(=O)(=O)c1ccc(C(=O)C[C@H](N)C(=O)O)cc1.Cl", "note": "[ESBA, (S)-(4-ethylsulfonyl)benzoylalanine hydrochloride]", "values": [
      {"measurement": "Effect on JM6-induced increases in brain KYNA", "setting": "[13]", "result": "prevented completely"},
      {"measurement": "Effect on KYNA levels in serum", "setting": "[13]", "result": "unaffected"}
    ]}
  ]
}
